Laboratory results reported in publication PMC10667816, “A Cell‐Penetrant Peptide Disrupting the Transcription Factor CP2c Complexes Induces Cancer‐Specific Synthetic Lethality” (Advanced Science, 2023).
*1 amine or outer side, *2 acyl side, *3 side chain or, on linkers, in order; H or OH if unused. Where a SMILES comes first, the peptide text is derived from it. Side-chain parts run from the residue outwards. The star is where a group is joined. γGlu = O=C(O)[C@H](CCC(=O)[*:2])N[*:1]; Palmitoyl = CCCCCCCCCCCCCCCC(=O)*

Columns and labels:
[1] = system: human stem cells (hMSCs and hESCs), mouse embryonic fibroblasts (MEFs), and human non‐transformed cell lines (BEAS‐2B and MCF10A); experiment: MTT growth inhibition in stem and non‐transformed cells; format: cell-based; conditions: concentration of 1 mM
Procedure: (§1) Various cell lines were treated with peptides, either alone or in combination with the CASP2 inhibitor (Ac‐VDVAD‐CHO; Enzo ALX‐260‐058‐M001) at various concentrations for 4 days. Cell viability was assessed on day 2 or day 4 using MTT (3‐(4,5‐dimethylthiazol‐2‐yl)‐2,5‐diphenyltetrazolium bromide; Sigma–Aldrich, M2128) assay. In brief, fresh cells were seeded in flat‐bottomed 96‐well tissue culture plates at appropriate concentrations for each cell line per well using complete culture medium. The cells were incubated in 100 µL of culture medium containing various concentration of chemicals or peptides at 37 °C for 0 to 96 h. A solution of MTT (5 mg mL^−1) was added to the culture medium, and the cells were further incubated at 37 °C for an additional 3 h. The MTT medium was then removed, and the formazan crystals were dissolved in DMSO (100 µL per well). The formazan concentration was measured spectrophotometrically at 490 nm using a Varioskan Flash Spectral Scanning Multimode Reader (Thermo Scientific Korea). Nonlinear regression curves for growth inhibition and GI50 values for each cell line were estimated from independent replicates using the Prism (version 6) software (GraphPad Software Inc.)

[2] = system: lung cancer cells and some blood cancer cells; experiment: MTT growth inhibition in ACP52C‐resistant cells; format: cell-based, human; conditions: concentrations up to 1 mM
Procedure: as §1

[3] = system: over 450 human kinases or disease‐relevant mutant variants; experiment: KINOMEscan screening; format: binding
[4] = system: α‐globin mRNA expression in iMEL cells; experiment: Transcription inhibition of α‐globin mRNA expression; format: cell-based, murine; conditions: α‐globin (Hba-a2) mRNA, 36 h after ACP52C treatment, two independent biological replicates, read-out: TI50 (the source's name)
Procedure: To quantify mRNA expression of the gene of interest, cells were harvested, and total cellular RNA was extracted using Qiazol reagent (Qiagen, 79306). Purified RNA was dissolved in Diethyl pyrocarbonate (DEPC) water. Reverse transcription was performed using a High‐Capacity cDNA reverse transcription kit (Toyobo, FSQ‐201) in the presence of 400 ng of total RNA and 10 pmol random hexamer. PCR was performed using rTaq Plus 5X PCR master mix (Elpis‐Biotech, EBT‐1319) and the SYBR green Master Mix Kit. Amplifications were performed using a Light cycler 1.5 real‐time PCR system.^[ [43] ^] The relative mRNA expression levels were determined using the 2(−ΔCt) method, with GAPDH transcript levels serving as an internal control. Errors were calculated from at least two independent experiments. Oligonucleotide primers used in RT–qPCR are listed in Table S2 (Supporting Information).
Figure S13. The relationship between ACP52C-mediated growth inhibition and transcriptional
cell differentiation in vitro.
at 36 h after ACP52C treatment of various doses.
biological replicates. […] C)
expression in uMEL and iMEL c ells. D-G) Anticancer activity of ACP52C correlates with cellular
Modulation of GI50 values in cancer cells by
ACP52C treatment. […] Duplicated data
are expressed as means ± SD.

[5] = system: hepatocellular carcinoma and breast cancer patient‐derived cancer cells; experiment: Sensitivity of patient‐derived cancer cells; format: cell-based, human; conditions: preliminary data
Procedure: For primary cell culture, tumor tissue samples obtained from patients undergoing surgery were finely minced, washed with phosphate buffered saline (PBS) containing penicillin/streptomycin, and then treated with trypsin solution at 37 °C for up to 20 min. The resulting cell suspension was filtered through a strainer (BD Falcon, 352235). The filtered cells were maintained in EpiX media, which consists of keratinocyte serum free medium (KSFM; Gibco, 17005042) supplemented with 50 µg mL^−1 bovine pituitary extract (Gibco, 13028014), 5 ng mL^−1 human epidermal growth factor (EGF; Thermo Fisher, PHG0311L), 1 µM TGF beta inhibitor (A83‐01; Sigma–Aldrich, SML0788), 5 µM ROCK inhibitor (Y27632; Sigma–Aldrich, Y0503), and 3 µM isoproterenol (Sigma–Aldrich, I6504). The culture medium was refreshed daily. For organoid culture, portions of human tissue samples were separated and transported to the laboratory on ice within 1 h of removal from the patients in cold Hank's balanced salt solution (HBSS) with antibiotics. […]

ICR mice = experiment: Repeated toxicity test of ACP52CGK; format: in vivo, mouse; conditions: 100 mpk intravenously daily for 4 weeks, n = 6/group; brain, heart, liver
Procedure: To assess the toxicity of ACP52C, twelve 6‐weeks‐old ICR mice (six males and six females) were divided into three groups, each containing two mice: one group received a saline, another received 100 mg kg^−1 of ACP52C, and the third received 1000 mg kg^−1 of ACP52C. For each group, one mouse was intravenously injected once, and the other one was intravenously injected twice with a four‐day interval between injections. At the time of sacrifice, major organs were analyzed by H&E staining. To assess the repeated toxicity of ACP52CGK, twenty‐four 6‐weeks‐old ICR mice (twelve males and twelve females) were used, dividing them into two groups of six mice each: one group received saline, and the other received 100 mg kg^−1 of ACP52CGK. […] Body weight, water and feed consumption were measured every 3 days after injection. […] Major organs were weighed and analyzed by H&E staining. H&E‐stained tissue sections were analyzed and photographed, and the representative histological images were recorded. […]
Repeated toxicity test of ACP52CGK were analyzed in ICR mice by intravenous injection of 100 mpk of ACP52CGK daily for 4 weeks (n = 6/group). A-C) Body weight (A), water consumption (B), and food consumption (C) were measured once every 3 days after injection. D-F) Major organ weight (D), CBC (E), and blood chemistry (F) were measured after sacrifice. Data are expressed as means ± SD in (B-F). […]

Row | SMILES | growth inhibition [1] | growth inhibition [2] | interactions with kinases [3] | IC50 [4] | fraction of patient‐derived cancer cells showing sensitivity [5] | adverse effects in normal organs (ICR mice)
1 | CC(=O)N[C@@H](CC(N)=O)C(=O)N[C@@H](Cc1ccc(O)cc1)C(=O)N1CCC[C@H]1C(=O)N[C@@H](CCC(N)=O)C(=O)N[C@@H](CCCNC(=N)N)C(=O)N1CCC[C@H]1C(=O)N[C@@H](CS)C(=O)N[C@@H](CCCNC(=N)N)C(=O)NCC(=O)N[C@@H](CC(=O)O)C(=O)N[C@@H](CCCCN)C(=O)NCC(=O)N1CCC[C@H]1C(=O)N[C@@H](CC(=O)O)C(=O)N[C@@H](CS)C(N)=O [ACP52C] (Ac-NYPQRPCRGDKGPDC-NH2) | minimal to zero growth inhibition | resistance | did not exhibit interactions | ~15 µM | over 85% | 
2 | CCCCCCCCCCCCCCCC(=O)N[C@@H](CCC(=O)NCCCC[C@H](NC(=O)CNC(=O)CNC(=O)[C@@H]1CCCN1C(=O)[C@H](CCCNC(=N)N)NC(=O)[C@H](CCC(N)=O)NC(=O)[C@@H]1CCCN1C(=O)[C@H](Cc1ccc(O)cc1)NC(=O)[C@H](CC(N)=O)NC(C)=O)C(=O)NCC(=O)NCC(=O)N[C@@H](CS)C(=O)N[C@@H](CCCNC(=N)N)C(=O)NCC(=O)N[C@@H](CC(=O)O)C(=O)N[C@@H](CCCCN)C(=O)NCC(=O)N1CCC[C@H]1C(=O)N[C@@H](CC(=O)O)C(=O)N[C@@H](CS)C(N)=O)C(=O)O [ACP52CGK] (Ac-NYPQRPGGK([γGlu-Palmitoyl])GGCRGDKGPDC-NH2) |  |  |  |  |  | did not induce any adverse effects
